Measured values taken from patent US20260250320A1, “LIPIDATED PEPTIDE INHIBITORS OF INTERLEUKIN-23 RECEPTOR” (Janssen Pharmaceutica NV, priority 2023, published 2026).
*1 amine or outer side, *2 acyl side, *3 side chain or, on linkers, in order; H or OH if unused. Where a SMILES comes first, the peptide text is derived from it. Bridges are numbered along the chain shown (N, C = ends). Side-chain parts run from the residue outwards. [ ]: non-standard residue; d: D form. The star is where a group is joined. Me3N+(CH2)2O(CH2)2O(CH2)2CO = C[N+](C)(C)CCOCCOCCC(=O)*; PEG12 = NCCOCCOCCOCCOCCOCCOCCOCCOCCOCCOCCOCCOCCC(=O)O; Trp(7-Me) = Cc1cccc2c(C[C@H](N)C(=O)O)c[nH]c12; C20 diacid = O=C(O)CCCCCCCCCCCCCCCCCCC(=O)*; Abu(4-yl) = O=C([C@H](CC[*:3])N[*:1])[*:2]; C18 diacid = O=C(O)CCCCCCCCCCCCCCCCC(=O)*; γGlu = O=C(O)[C@H](CCC(=O)[*:2])N[*:1]; 2Nal = N[C@@H](Cc1ccc2ccccc2c1)C(=O)O; AEF = NCCOc1ccc(C[C@H](N)C(=O)O)cc1; X2 = C[N+](C)(C)C[C@@H](CC(=O)O)N*; 3Pal = N[C@@H](Cc1cccnc1)C(=O)O; Lys(Me) = CNCCCC[C@H](N)C(=O)O; NMeK = CN[C@@H](CCCCN)C(=O)O; Pen = CC(C)(S)[C@H](N)C(=O)O; Suc = O=C(CCC(=O)[*:2])[*:1]; Lauroyl = CCCCCCCCCCCC(=O)*; αMeC = C[C@](N)(CS)C(=O)O; Thp = NC1(C(=O)O)CCOCC1; X1 = C[N+](C)(C)CCCCC*; AEEA = NCCOCCOCC(=O)O; Sar = CNCC(=O)O

Target: T1, IL-23R (Homo sapiens, UniProt Q5VWK5)
T1 construct: HEK293 cells containing IL-23R, IL-12Rβ1 and a firefly luciferase reporter gene driven by a STAT-inducible promoter (Promega); host or cells: HEK293
T1 sequence (Q5VWK5 24-629): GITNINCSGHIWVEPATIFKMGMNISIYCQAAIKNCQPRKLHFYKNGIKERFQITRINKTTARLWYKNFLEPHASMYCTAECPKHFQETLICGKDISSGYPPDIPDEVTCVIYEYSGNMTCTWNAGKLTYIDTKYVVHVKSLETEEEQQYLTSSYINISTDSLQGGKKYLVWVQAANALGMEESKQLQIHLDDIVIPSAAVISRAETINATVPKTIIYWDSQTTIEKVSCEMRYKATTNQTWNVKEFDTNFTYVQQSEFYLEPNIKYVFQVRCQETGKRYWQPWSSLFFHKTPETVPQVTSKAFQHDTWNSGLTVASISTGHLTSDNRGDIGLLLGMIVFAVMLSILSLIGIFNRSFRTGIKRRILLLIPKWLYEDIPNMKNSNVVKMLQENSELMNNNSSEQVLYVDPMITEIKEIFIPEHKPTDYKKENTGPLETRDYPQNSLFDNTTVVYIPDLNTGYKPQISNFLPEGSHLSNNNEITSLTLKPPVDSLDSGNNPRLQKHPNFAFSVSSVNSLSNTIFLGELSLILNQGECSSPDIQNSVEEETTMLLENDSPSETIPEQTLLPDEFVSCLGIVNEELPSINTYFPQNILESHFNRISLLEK
Test: IL23R Reporter Assay
Assay type: cell-based
Settings: HEK293 cells containing IL-23R, IL-12Rβ1 and STAT-inducible firefly luciferase reporter; 10 ng/mL IL-23 (EC90); 5 h
Description: Compounds were serially diluted in 100% (v/v) DMSO) and plated using an Echo acoustic dispenser (Labcyte) into 1536-well non-treated black assay plates (Corning #9146). 3 μL of HEK293 cells containing IL-23R, IL-12Rβ1 and a firefly luciferase reporter gene driven by a STAT-inducible promoter (Promega) were added to the plates (4000 cells/well), followed by 3 μL of 10 ng/mL IL-23 (equivalent to EC90 concentration). After 5 h at 37° C., 5% CO2, 95% relative humidity, cells were placed at 20° C. and treated with BioGlo reagent (Promega) according to the Manufacturer's instructions. Luminescence was measured on a Pherastar FSX (BMG LabTech). Data were normalized to IL-23 treatment (0% inhibition) and 30 μM of control inhibitor (100% inhibition), and IC50 values were determined using a 4-parameter Hill equation.

Row | IC50 [µM] | Structure (SMILES)
1 | < 0.05 | CCCCCCCCCCCCCC(=O)N(C)CC(=O)N[C@@H](CO)C(=O)N(C)CC(=O)N[C@@H](CO)C(=O)N(C)CC(=O)N[C@@H](CO)C(=O)N(C)CC(=O)NCCCC[C@H](NC(=O)CN(C)C(=O)[C@H](Cc1cccnc1)NC(=O)[C@H](CC(N)=O)NC(=O)[C@H](CCC(=O)O)NC(=O)C1(NC(=O)[C@H](Cc2ccc3ccccc3c2)NC(=O)[C@H](Cc2ccc(OCCN)cc2)NC(=O)C2NC(=O)[C@H](CCCCNC(C)=O)NC(=O)[C@H](Cc3c[nH]c4c(C)cccc34)NC(=O)[C@H]([C@@H](C)O)NC(=O)[C@H](CC(N)=O)NC(=O)[C@@H](NC(C)=O)C(C)(C)SSC2(C)C)CCOCC1)C(N)=O (stereo partly drawn) [compound 1, MeCO-Pen(3)-N-T-7MeW-K(Ac)-Pen(3)-AEF-2Nal-THP-E-N-3Pya-Sar-K(Sar-S-Sar-S-Sar-S-Sar-C14)-CONH2]
2 | < 0.05 | CCCCCCCCCCCC(=O)N[C@@H](CCC(=O)NCCOCCOCC(=O)NCCOCCOCC(=O)N[C@H](CCCNC(=N)N)C(=O)N[C@H]1CCSC[C@@](C)(C(=O)N[C@@H](Cc2ccc(OCCN)cc2)C(=O)N[C@@H](Cc2ccc3ccccc3c2)C(=O)NC2(C(=O)N[C@@H](CCC(=O)O)C(=O)N[C@@H](CC(N)=O)C(=O)N[C@@H](Cc3cccnc3)C(=O)N(C)CC(N)=O)CCOCC2)NC(=O)[C@H](CCCCNC(C)=O)NC(=O)[C@H](Cc2c[nH]c3c(C)cccc23)NC(=O)[C@H]([C@@H](C)O)NC(=O)[C@H](CC(N)=O)NC1=O)C(=O)O [compound 6, C12gEPEG2PEG2CO-r-Abu(1)-N-T-7MeW-K(Ac)-aMeC(1)-AEF-2Nal-THP-E-N-ePya-Sar CONH2] ({Lauroyl-γGlu-AEEA-AEEA}-[dR][Abu(4-yl)]NT[Trp(7-Me)]K(Ac)[αMeC][AEF][2Nal][Thp]EN[3Pal][Sar]-NH2; thioether 2-7)
3 | 0.05 to 0.5 | CC(=O)N[C@H](CCCNC(=N)N)C(=O)N[C@@H]1C(=O)N[C@@H](CC(N)=O)C(=O)N[C@@H]([C@@H](C)O)C(=O)N[C@@H](Cc2c[nH]c3c(C)cccc23)C(=O)N[C@@H](CCCCNC(=O)CCC(=O)N[C@H](CC(=O)O)C[N+](C)(C)C)C(=O)N[C@H](C(=O)N[C@@H](Cc2ccc(OCCN)cc2)C(=O)N[C@@H](Cc2ccc3ccccc3c2)C(=O)NC2(C(=O)N[C@@H](CCC(=O)O)C(=O)N[C@@H](CC(N)=O)C(=O)N[C@@H](Cc3cccnc3)C(=O)N(C)[C@@H](CCCCNC(=O)COCCOCCNC(=O)COCCOCCNC(=O)CC[C@H](NC(=O)CCCCCCCCCCCCCCCCC(=O)O)C(=O)O)C(N)=O)CCOCC2)C(C)(C)SSC1(C)C [compound 29, MeCO-r-Pen(3)-N-T-7MeW-K(D)-Pen(3)-AEF-2Nal-THP-E-N-3Pya-NMeK(PEG2PEG2gEC18OH)-CONH2] (Ac-[dR][Pen]NT[Trp(7-Me)]K([Suc-X2])[Pen][AEF][2Nal][Thp]EN[3Pal][NMeK]([AEEA-AEEA-γGlu-C18 diacid])-NH2; disulfide 2-7)
4 | < 0.05 | CC(=O)NCCCC[C@@H]1NC(=O)[C@H](Cc2c[nH]c3c(C)cccc23)NC(=O)[C@H]([C@@H](C)O)NC(=O)[C@H](CCCCNC(=O)CCC(=O)N[C@H](CC(=O)O)C[N+](C)(C)C)NC(=O)[C@@H](NC(=O)[C@@H](CCCNC(=N)N)NC(=O)COCCOCCNC(=O)COCCOCCNC(=O)CC[C@H](NC(=O)CCCCCCCCCCCCCCCCC(=O)O)C(=O)O)C(C)(C)SSC(C)(C)[C@@H](C(=O)N[C@@H](Cc2ccc(OCCN)cc2)C(=O)N[C@@H](Cc2ccc3ccccc3c2)C(=O)NC2(C(=O)N[C@@H](CCC(=O)O)C(=O)N[C@@H](CC(N)=O)C(=O)N[C@@H](Cc3cccnc3)C(=O)N(C)CC(N)=O)CCOCC2)NC1=O [compound 47, HOC18gEPEG2PEG2CO-r-Pen(3)-K(d)-T-7MeW-K(Ac)-Pen(3)-AEF-2Nal-THP-E-N-3Pya-Sar-CONH2] ({C18 diacid-γGlu-AEEA-AEEA}-[dR][Pen]K([Suc-X2])T[Trp(7-Me)]K(Ac)[Pen][AEF][2Nal][Thp]EN[3Pal][Sar]-NH2; disulfide 2-7)
5 | ≥ 0.5 | CC(=O)N(C)CCCC[C@@H]1NC(=O)[C@H](Cc2c[nH]c3c(C)cccc23)NC(=O)[C@H]([C@@H](C)O)NC(=O)[C@H](CC(=O)N(C)C)NC(=O)[C@@H](NC(=O)[C@H](CCCCNC(=O)COCCOCCNC(=O)COCCOCCNC(=O)CC[C@H](NC(=O)CCCCCCCCCCCCCCCCC(=O)O)C(=O)O)NC(=O)CCOCCOCC[N+](C)(C)C)C(C)(C)SSC(C)(C)[C@@H](C(=O)N[C@@H](Cc2ccc(OCCN)cc2)C(=O)N[C@@H](Cc2ccc3ccccc3c2)C(=O)NC2(C(=O)N[C@@H](CCCCN(C)C(C)=O)C(=O)N[C@@H](CC(N)=O)C(=O)N[C@@H](Cc3cccnc3)C(=O)N(C)CC(N)=O)CCOCC2)NC1=O [compound 68, cPEG3aCO-K(PEG2PEG2gEC18OH)-Pen(3)-N(N(Me)2)-T-7MeW-K(NMeAc)-Pen(3)-AEF-2Nal-THP-K(NMeAc)-N-3Pya-Sar-CONH2] ({Me3N+(CH2)2O(CH2)2O(CH2)2CO}-K([AEEA-AEEA-γGlu-C18 diacid])[Pen]D(NMe2)T[Trp(7-Me)][Lys(Me)](Ac)[Pen][AEF][2Nal][Thp][Lys(Me)](Ac)N[3Pal][Sar]-NH2; disulfide 2-7)
6 | 0.05 to 0.5 | CC(=O)NCCCC[C@@H]1NC(=O)[C@H](Cc2c[nH]c3c(C)cccc23)NC(=O)[C@H]([C@@H](C)O)NC(=O)[C@H](CC(N)=O)NC(=O)[C@@H](NC(=O)[C@@H](CCCNC(=N)N)NC(C)=O)C(C)(C)SSC(C)(C)[C@@H](C(=O)N[C@@H](Cc2ccc(OCCCCC[N+](C)(C)C)cc2)C(=O)N[C@@H](Cc2ccc3ccccc3c2)C(=O)NC2(C(=O)N[C@@H](CCC(=O)O)C(=O)N[C@@H](CC(N)=O)C(=O)N[C@@H](Cc3cccnc3)C(=O)N(C)CC(=O)N[C@@H](CCCCNC(=O)COCCOCCNC(=O)COCCOCCNC(=O)CC[C@H](NC(=O)CCCCCCCCCCCCCCCCC(=O)O)C(=O)O)C(N)=O)CCOCC2)NC1=O [compound 69, MeCO-r-Pen(3)-N-T-7MeW-K(Ac)-Pen(3)-TMAPF-2Nal-THP-E-N-3Pya-Sar-K(PEG2PEG2C18OH)-CONH2] (Ac-[dR][Pen]NT[Trp(7-Me)]K(Ac)[Pen]Y(X1)[2Nal][Thp]EN[3Pal][Sar]K([AEEA-AEEA-γGlu-C18 diacid])-NH2; disulfide 2-7)
7 | 0.05 to 0.5 | CC(=O)NCCCC[C@@H]1NC(=O)[C@H](Cc2c[nH]c3c(C)cccc23)NC(=O)[C@H]([C@@H](C)O)NC(=O)[C@H](CC(N)=O)NC(=O)[C@@H](NC(C)=O)C(C)(C)SSC(C)(C)[C@@H](C(=O)N[C@@H](Cc2ccc(OCCN)cc2)C(=O)N[C@@H](Cc2ccc3ccccc3c2)C(=O)NC2(C(=O)N[C@@H](CCC(=O)O)C(=O)N[C@@H](CC(N)=O)C(=O)N[C@@H](Cc3cccnc3)C(=O)N(C)CC(=O)N[C@@H](CCCCNC(=O)COCCOCCNC(=O)COCCOCCNC(=O)CC[C@H](NC(=O)CCCCCCCCCCCCCCCCCCC(=O)O)C(=O)O)C(=O)NCCOCCOCC[N+](C)(C)C)CCOCC2)NC1=O [compound 93, MeCO-Pen(3)-N-T-7MeW-K(Ac)-Pen(3)-AEF-2Nal-THP-K(Ac)-N-3Pya-Sar-K(PEG2PEG2gEC20OH)-CONH(PEG3a)]
8 | < 0.05 | CC(=O)N(C)CCCC[C@@H]1NC(=O)[C@H](Cc2c[nH]c3c(C)cccc23)NC(=O)[C@H]([C@@H](C)O)NC(=O)[C@H](CC(=O)N(C)C)NC(=O)[C@@H](NC(=O)CCOCCOCCOCCOCCOCCOCCOCCOCCOCCOCCOCCOCCNC(=O)CC[C@H](NC(=O)CCCCCCCCCCCCCCCCCCC(=O)O)C(=O)O)C(C)(C)SSC(C)(C)[C@@H](C(=O)N[C@@H](Cc2ccc(OCCCCC[N+](C)(C)C)cc2)C(=O)N[C@@H](Cc2ccc3ccccc3c2)C(=O)NC2(C(=O)N[C@@H](CCCCN(C)C(C)=O)C(=O)N[C@@H](CC(N)=O)C(=O)N[C@@H](Cc3cccnc3)C(=O)N(C)CC(=O)N(C)C)CCOCC2)NC1=O [compound 94, HOC20gEPEG12CO-Pen(3)-N(N(Me)2)-T-7MeW-K(NMeAc)-Pen(3)-TMAPF-2Nal-THP-K(NMeAc)-N-3Pya-Sar-CON(Me)2] ({C20 diacid-γGlu-PEG12}-[Pen]D(NMe2)T[Trp(7-Me)][Lys(Me)](Ac)[Pen]Y(X1)[2Nal][Thp][Lys(Me)](Ac)N[3Pal][Sar]-NMe2; disulfide 1-6)
9 | 0.05 to 0.5 | CC(=O)NCCCC[C@@H]1NC(=O)[C@H](Cc2c[nH]c3c(C)cccc23)NC(=O)[C@H]([C@@H](C)O)NC(=O)[C@H](CC(N)=O)NC(=O)[C@@H](NC(C)=O)C(C)(C)SSC(C)(C)[C@@H](C(=O)N[C@@H](Cc2ccc(OCCN)cc2)C(=O)N[C@@H](Cc2ccc3ccccc3c2)C(=O)NC2(C(=O)N[C@@H](CCC(=O)O)C(=O)N[C@@H](CC(N)=O)C(=O)N[C@@H](Cc3cccnc3)C(=O)N(C)CC(=O)NCCOCCOCCOCCOCCOCCOCCOCCOCCOCCOCCOCCOCCNC(=O)CC[C@H](NC(=O)CCCCCCCCCCCCCCCCC(=O)O)C(=O)O)CCOCC2)NC1=O [compound 135, MeCO-Pen(3)-N-T-7MeW-K(Ac)-Pen(3)-AEF-2Nal-THP-E-N-3Pya-Sar-CO(PEG12gEC18OH)]
